# Test results reported in publication PMC8913315, “Comparison of glycoside hydrolase family 3 β-xylosidases from basidiomycetes and ascomycetes reveals evolutionarily distinct xylan degradation systems” (The Journal of Biological Chemistry, 2022).
# Tests used:
# PcBxl3 = biological target: T1, PcBxl3 (Phanerodontia chrysosporium, UniProt Z9K6S9QQP9); experiment: X-ray crystal structure, […] Å; format: binding; conditions: crystal soaked briefly in 100 mM xylobiose, 40% PEG 400; Endo H deglycosylated; subsite -1
# T1 construct: cDNA from strain K-3, pPICZalpha A, secreted from Pichia pastoris KM71H; 743 residues; glycosylated, Endo H treated for crystals; monomer in asymmetric unit
# T1 sequence (Z9K6S9QQP9 1-743): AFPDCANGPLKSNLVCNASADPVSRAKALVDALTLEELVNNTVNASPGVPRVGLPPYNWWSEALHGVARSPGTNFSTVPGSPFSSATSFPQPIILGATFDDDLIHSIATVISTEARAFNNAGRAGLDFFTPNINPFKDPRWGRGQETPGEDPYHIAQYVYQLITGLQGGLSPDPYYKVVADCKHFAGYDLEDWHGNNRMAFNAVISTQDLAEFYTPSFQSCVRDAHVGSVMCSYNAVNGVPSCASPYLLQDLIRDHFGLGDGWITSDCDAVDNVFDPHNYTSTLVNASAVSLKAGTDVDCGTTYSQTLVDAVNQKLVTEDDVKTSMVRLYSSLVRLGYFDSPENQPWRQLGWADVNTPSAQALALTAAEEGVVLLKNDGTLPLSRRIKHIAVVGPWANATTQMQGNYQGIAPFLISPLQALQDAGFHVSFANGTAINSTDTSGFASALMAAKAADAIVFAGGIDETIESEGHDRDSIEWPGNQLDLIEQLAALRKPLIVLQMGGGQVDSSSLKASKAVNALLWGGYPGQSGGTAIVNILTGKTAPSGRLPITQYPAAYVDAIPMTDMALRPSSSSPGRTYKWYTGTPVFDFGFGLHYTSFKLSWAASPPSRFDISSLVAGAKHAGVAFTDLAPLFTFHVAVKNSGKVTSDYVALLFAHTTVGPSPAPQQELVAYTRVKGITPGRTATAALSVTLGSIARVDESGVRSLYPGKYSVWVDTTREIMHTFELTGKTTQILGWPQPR
# TrXyl3A = biological target: T2, TrXyl3A (Trichoderma reesei, UniProt Q92458); experiment: X-ray crystal structure, […] Å; format: binding; conditions: crystal soaked 1 h with 14 mM 4-thioxylobiose, pH 7.0; subsites -1 and +1
# T2 construct: gene bxl1; kinetics: synthetic gene codon-optimized, pPICZalpha A, secreted from Pichia pastoris KM71H; crystals: protein gift from DuPont Industrial Bioscience; 777 residues; dimer in asymmetric unit
# T2 sequence (Q92458 entry or part of it): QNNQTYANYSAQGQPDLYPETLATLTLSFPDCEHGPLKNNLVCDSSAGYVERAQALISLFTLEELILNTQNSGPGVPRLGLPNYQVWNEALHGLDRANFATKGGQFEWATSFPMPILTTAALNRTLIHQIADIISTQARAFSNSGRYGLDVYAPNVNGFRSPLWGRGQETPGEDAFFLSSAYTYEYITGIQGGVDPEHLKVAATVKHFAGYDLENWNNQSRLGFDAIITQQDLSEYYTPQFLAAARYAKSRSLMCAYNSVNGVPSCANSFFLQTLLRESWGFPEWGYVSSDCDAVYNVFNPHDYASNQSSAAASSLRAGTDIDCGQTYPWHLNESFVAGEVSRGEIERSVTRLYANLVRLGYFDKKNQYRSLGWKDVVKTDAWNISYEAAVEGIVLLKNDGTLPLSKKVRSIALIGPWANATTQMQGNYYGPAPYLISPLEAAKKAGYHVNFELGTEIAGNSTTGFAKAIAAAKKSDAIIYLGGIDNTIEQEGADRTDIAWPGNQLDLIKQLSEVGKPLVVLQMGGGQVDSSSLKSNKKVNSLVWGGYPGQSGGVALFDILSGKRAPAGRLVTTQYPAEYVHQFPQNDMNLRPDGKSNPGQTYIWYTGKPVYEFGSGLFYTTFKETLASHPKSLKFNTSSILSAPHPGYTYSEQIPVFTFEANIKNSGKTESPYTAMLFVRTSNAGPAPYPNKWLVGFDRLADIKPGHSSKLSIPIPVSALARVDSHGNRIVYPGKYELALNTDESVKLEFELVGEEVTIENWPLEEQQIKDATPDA
Structure (SMILES),"X-ray crystal structure, 3.08 Å (PcBxl3)","X-ray crystal structure, 2.1 Å (TrXyl3A)"
"OC1OC[C@@H](O)[C@H](O)[C@H]1O (some centres unmarked) [X, xylose]",The structure of PcBxl3 with xylose bound in the catalytic center was also determined,–
OC1OC[C@@H](S[C@@H]2OC[C@@H](O)[C@H](O)[C@H]2O)[C@H](O)[C@H]1O (some centres unmarked) [4-thioxylobiose],–,The crystal structure of TrXyl3A bound with thioxylobiose was determined by molecular replacement
